According to US4810818A, “Process for producing alpha-aspartyl-l-phenylalanine methyl ester having an improved solubility” (Toyo Soda Manufacturing Co., Ltd, priority 1986, dated 1989):
Peptide text beside a SMILES is read from it.

What was measured:
[1] = Solubility: duration till 1 g of Aspartame crystals in 500 ml distilled water was completely dissolved as visually observed; format: physicochemical; conditions: 1 g in 500 ml distilled water, 20° C., magnetic stirrer 200 r.p.m.; for Solubility (min.) (duration till completely dissolved): Table 2, dried at 50° C. then 70° C.; for Solubility (min) (duration till completely dissolved): Table 1
Method: In the Examples, the solubility of Aspartame crystals was determined by measuring the duration till 1 g of Aspartame crystals which was added to 500 ml of distilled water at 20° C., followed by stirring (by a magnetic stirrer at 200 r.p.m.), was completely dissolved as visually observed.

[2] = Ratio of I type crystals by X-ray diffraction specific peaks with calibration curve; format: physicochemical; conditions: peaks at 2θ 4.4° (I) and 5.0° (II)
Method: Then, the ratio of the I type crystals was determined by comparing the strength ratio of each sample with the calibration curve.

[3] = Dispersibility and solubility in water (general statements); format: physicochemical; conditions: as compared with the II type crystals
[4] = as compared with the I type crystals; cited from earlier work
[5] = cited from earlier work
[6] = Crystal form conversion (I type to II type) on drying; format: physicochemical; conditions: irrespective of the drying method
[7] = drying at a high temperature; part readily converted to a diketopiperadine derivative; cited from earlier work
[8] = Table 2, dried at 50° C. then 70° C.

| Compound | Solubility (min.) (duration till completely dissolved) [1] | Ratio of I type crystals (%) [2, 8] | other results |
| --- | --- | --- | --- |
| COC(=O)[C@H](Cc1ccccc1)NC(=O)[C@@H](N)CC(=O)O [I type crystals, α-L-aspartyl-L-phenylalanine methyl ester] (H-Asp-Phe-OMe) |  |  | solubility, I type versus II type crystals [3]: far superior in the solubility to the II type crystals |
| COC(=O)[C@H](Cc1ccccc1)NC(=O)[C@@H](N)CC(=O)O [Example 2, α-L-aspartyl-L-phenylalanine methyl ester] (H-Asp-Phe-OMe) | 5 to 6 min | 90% |  |
| COC(=O)[C@H](Cc1ccccc1)NC(=O)[C@@H](N)CC(=O)O [Aspartame II type crystals, α-L-aspartyl-L-phenylalanine methyl ester] (H-Asp-Phe-OMe) |  |  | hygroscopicity [4]: low hygroscopicity; storage stability [4]: excellent storage stability |
| COC(=O)[C@H](Cc1ccccc1)NC(=O)[C@@H](N)CC(=O)O [compound 3, α-L-aspartyl-L-phenylalanine methyl ester] (H-Asp-Phe-OMe) | 15 to 16 min | 51% |  |
| COC(=O)[C@H](Cc1ccccc1)NC(=O)[C@@H](N)CC(=O)O [Aspartame, α-L-aspartyl-L-phenylalanine methyl ester] (H-Asp-Phe-OMe) |  |  | dispersibility and solubility in water [5]: poor dispersibility and solubility in water; water content till which the I type crystal form is maintained [6]: about 15 % by weight; stability at a high temperature [7]: not stable at a high temperature |
| COC(=O)[C@H](Cc1ccccc1)NC(=O)[C@@H](N)CC(=O)O [compound 5, α-L-aspartyl-L-phenylalanine methyl ester] (H-Asp-Phe-OMe) | 7 to 8 min | 78% |  |
| COC(=O)[C@H](Cc1ccccc1)NC(=O)[C@@H](N)CC(=O)O [Comparative Example 1, α-L-aspartyl-L-phenylalanine methyl ester] (H-Asp-Phe-OMe) |  |  | Solubility (min) (duration till completely dissolved) [1]: 13 to 14 min; Ratio of I type crystals (%) ([2]; Table 1): 25% |
| COC(=O)[C@H](Cc1ccccc1)NC(=O)[C@@H](N)CC(=O)O [Example 1, α-L-aspartyl-L-phenylalanine methyl ester] (H-Asp-Phe-OMe) |  |  | Solubility (min) (duration till completely dissolved) [1]: 5 to 6 min; Ratio of I type crystals (%) ([2]; Table 1): 98% |

Second part, led by results:

| Solubility (min.) (duration till completely dissolved) [1] | Ratio of I type crystals (%) [2, 8] | Compound | other results |
| --- | --- | --- | --- |
| 4 to 5 min | 100% | COC(=O)[C@H](Cc1ccccc1)NC(=O)[C@@H](N)CC(=O)O [Example 5, α-L-aspartyl-L-phenylalanine methyl ester] (H-Asp-Phe-OMe) |  |
| 5 to 6 min | 100% | COC(=O)[C@H](Cc1ccccc1)NC(=O)[C@@H](N)CC(=O)O [Example 3, α-L-aspartyl-L-phenylalanine methyl ester] (H-Asp-Phe-OMe) |  |
| 4 to 5 min | 98% | COC(=O)[C@H](Cc1ccccc1)NC(=O)[C@@H](N)CC(=O)O [Example 4, α-L-aspartyl-L-phenylalanine methyl ester] (H-Asp-Phe-OMe) |  |
| 13 to 14 min | 60% | COC(=O)[C@H](Cc1ccccc1)NC(=O)[C@@H](N)CC(=O)O [compound 2, α-L-aspartyl-L-phenylalanine methyl ester] (H-Asp-Phe-OMe) |  |
| 14 to 15 min | 64% | COC(=O)[C@H](Cc1ccccc1)NC(=O)[C@@H](N)CC(=O)O [compound 4, α-L-aspartyl-L-phenylalanine methyl ester] (H-Asp-Phe-OMe) |  |
